Results as given in patent publication US6803198B2, “Carbamate-derivatized nucleosides and oligonucleosides” (ISIS Pharmaceuticals, Inc., priority 1996, dated 2004).

Tests used:
ICAM-1 [1] = assay: ICAM-1 expression in bEnd.3 cells (flow cytometry of cell-surface protein, Northern blot of mRNA); type: cell-based, mouse; details: cell culture, without any cationic lipid adjuvant
Description: Cholesterol-oligonucleotide assays for ICAM-1 are done in the bEnd.3 cell line, a brain endothelioma using Opti-MEM, trypsin-EDTA and DMEM with high glucose (all from Gibco-BRL, Grand Island, N.Y.), Dulbecco's PBS (Irvine Scientific, Irvine, Calif.), sterile, 12 well tissue culture plates and Facsflow solution (from Becton Dickinson, Mansfield, Mass.), ultrapure formaldehyde (Polysciences, Warrington, Pa.), recombinant human TNF-α (R&D Systems, Minneapolis, Minn., mouse interferon-γ (Genzyme, Cambridge, Mass.), and Fraction V, BSA (Sigma, St. Louis, Mo.). The mouse ICAM-1-PE, VCAM-1-FITC, hamster IgG-FITC and rat IgG2α-PE antibodies were purchased from Pharmingen (San Diego, Calif.). Zeta-Probe nylon blotting membrane was purchased from Bio-Rad (Richmond, Calif.). QuickHyb solution was purchased from Stratagene (La Jolla, Calif.). A cDNA labeling kit, Prime-a-Gene, was purchased from ProMega (Madison, Wis.). NAP-5 columns were purchased from Pharmacia (Uppsala, Sweden). […]
After oligonucleotide treatment, cells are detached from the plates with a short treatment of trypsin-EDTA (1-2 min.). […] Cells are analyzed on a Becton Dickinson FACScan. Results are expressed as percentage of control expression, which is calculated as follows: [((CAM expression for oligonucleotide-treated cytokine induced cells)−(basal CAM expression))/((cytokine-induced CAM expression)−(basal CAM expression))]×100. […]

ICAM-1 [2] = assay: Inhibition of LPS-induced ICAM-1 expression in mouse liver; type: in vivo, C57Bl/10 mice; details: 10 mg/kg i.v. twice, 24 h and 2 h before LPS; liver RNA 4 h after LPS
VCAM-1 = VCAM-1 expression in cell culture (target specificity control); type: cell-based, mouse; details: isotype protein VCAM-1
Description: Cholesterol-oligonucleotide assays for ICAM-1 are done in the bEnd.3 cell line, a brain endothelioma using Opti-MEM, trypsin-EDTA and DMEM with high glucose (all from Gibco-BRL, Grand Island, N.Y.), Dulbecco's PBS (Irvine Scientific, Irvine, Calif.), sterile, 12 well tissue culture plates and Facsflow solution (from Becton Dickinson, Mansfield, Mass.), ultrapure formaldehyde (Polysciences, Warrington, Pa.), recombinant human TNF-α (R&D Systems, Minneapolis, Minn., mouse interferon-γ (Genzyme, Cambridge, Mass.), and Fraction V, BSA (Sigma, St. Louis, Mo.). The mouse ICAM-1-PE, VCAM-1-FITC, hamster IgG-FITC and rat IgG2α-PE antibodies were purchased from Pharmingen (San Diego, Calif.). Zeta-Probe nylon blotting membrane was purchased from Bio-Rad (Richmond, Calif.). QuickHyb solution was purchased from Stratagene (La Jolla, Calif.). A cDNA labeling kit, Prime-a-Gene, was purchased from ProMega (Madison, Wis.). NAP-5 columns were purchased from Pharmacia (Uppsala, Sweden). Cells are grown to approximately 75% confluency in 12 well plates with DMEM containing 4.5 g/L glucose and 10% FBS. […] Cells are analyzed on a Becton Dickinson FACScan. Results are expressed as percentage of control expression, which is calculated as follows: [((CAM expression for oligonucleotide-treated cytokine induced cells)−(basal CAM expression))/((cytokine-induced CAM expression)−(basal CAM expression))]×100. […]

[3] = mouse, in vivo
Protocol: The effect of cholesterol conjugation on the pharmacokinetic properties of the oligonucleotide is determined in mice using ^3H radiolabeled Oligonucleotide VI.

Oligomer VI: TGC* ATC CCC CAG GCC ACC AT (P = S), C* = cholesterol carbamate nucleoside Compound 9; cholesterol conjugate of ISIS 3082
effect on ICAM-1 expression (ICAM-1 [1]): inhibits ICAM-1 in a dose dependent manner | reduction of ICAM expression in liver (ICAM-1 [2]): 40-50% | inhibition of VCAM-1 expression (VCAM-1): neither molecule show significant inhibition | amount of oligonucleotide in kidney, skeletal muscle and skin [3]: reduced in kidney, skeletal muscle and skin | amount of oligonucleotide in liver [3]: more oligonucleotide is found in the liver | retention in plasma [3]: retained in the plasma for longer periods of time than is ISIS-3082
